Measured values: BindingDB's records for PubMed 32898763 (n/a, 2020)

How the values were obtained:
[1] = biological target: Prostaglandin G/H synthase 1 (Homo sapiens, UniProt P23219); experiment: Inhibition of COX-1 (unknown origin)
[2] = biological target: T1, Prostaglandin G/H synthase 2 (Homo sapiens, UniProt P35354); experiment: Inhibition of COX-2 (unknown origin)
T1 sequence (P35354 whole entry): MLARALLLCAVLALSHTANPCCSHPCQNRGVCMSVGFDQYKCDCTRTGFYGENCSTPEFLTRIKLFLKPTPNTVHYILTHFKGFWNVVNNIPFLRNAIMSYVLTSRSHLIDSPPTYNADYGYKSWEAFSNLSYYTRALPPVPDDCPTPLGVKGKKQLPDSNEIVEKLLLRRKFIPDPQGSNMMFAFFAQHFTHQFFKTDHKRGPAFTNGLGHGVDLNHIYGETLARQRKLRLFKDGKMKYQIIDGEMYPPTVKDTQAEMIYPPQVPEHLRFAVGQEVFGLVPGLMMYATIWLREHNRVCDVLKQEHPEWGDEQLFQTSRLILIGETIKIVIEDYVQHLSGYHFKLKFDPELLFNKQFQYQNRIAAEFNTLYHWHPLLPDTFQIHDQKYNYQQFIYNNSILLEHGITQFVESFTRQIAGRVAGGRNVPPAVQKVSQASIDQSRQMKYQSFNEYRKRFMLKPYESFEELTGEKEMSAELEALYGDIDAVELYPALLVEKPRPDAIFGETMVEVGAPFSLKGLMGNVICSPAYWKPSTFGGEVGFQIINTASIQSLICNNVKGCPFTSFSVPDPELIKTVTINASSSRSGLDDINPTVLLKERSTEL

Prostaglandin G/H synthase 1, sequence (P23219 whole entry): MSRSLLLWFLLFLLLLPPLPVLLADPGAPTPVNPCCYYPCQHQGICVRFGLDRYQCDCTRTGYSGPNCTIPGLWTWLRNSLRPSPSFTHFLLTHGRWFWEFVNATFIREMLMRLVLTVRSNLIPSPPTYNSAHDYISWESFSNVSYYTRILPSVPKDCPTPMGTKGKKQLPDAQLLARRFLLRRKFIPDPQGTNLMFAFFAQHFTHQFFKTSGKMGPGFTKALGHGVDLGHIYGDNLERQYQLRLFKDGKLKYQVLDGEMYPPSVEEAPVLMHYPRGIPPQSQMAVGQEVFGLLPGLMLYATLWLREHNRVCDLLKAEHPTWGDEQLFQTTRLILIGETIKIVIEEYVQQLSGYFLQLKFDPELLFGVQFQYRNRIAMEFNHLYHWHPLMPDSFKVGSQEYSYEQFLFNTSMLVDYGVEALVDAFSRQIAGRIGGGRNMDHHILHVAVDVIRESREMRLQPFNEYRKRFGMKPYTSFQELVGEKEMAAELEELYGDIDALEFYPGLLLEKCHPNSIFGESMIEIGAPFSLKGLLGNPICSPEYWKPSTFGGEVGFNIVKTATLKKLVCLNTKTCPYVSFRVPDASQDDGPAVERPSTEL

Structure (SMILES) | IC50 [1] | IC50 [2]
CCC(=CCN1Cc2cc(C)cc3nc(O)n(c23)C[C@@H]1C)CC | 9.56 µM | 0.1 µM
CC1Cn2c(S)nc3cc(Cl)cc(c32)CN1CC1CCC1 (stereo unspecified) | 9.56 µM | 0.1 µM
CCC(=CCN1Cc2cc(Cl)cc3nc(S)n(c23)CC1C)CC (stereo unspecified) | 9.56 µM | 0.1 µM
